# From ChEMBL document CHEMBL1153674, “Synthesis and incorporation of 2-amino acid conjugated nucleotides into ribozymes” (Bioorg Med Chem Lett, 1995)
# Assay: Half-life was determined
# Assay type: ADME
# Settings: human
row,SMILES,half-life
1,C[C@@H](NC(=O)OCC1c2ccccc2-c2ccccc21)C(=O)NC1C(O)C(CO)OC1n1ccc(=O)[nH]c1=O (some centres undefined),1.5 min
2,O=C(NCCCC[C@@H](NC(=O)OCC1c2ccccc2-c2ccccc21)C(=O)NC1C(O)C(CO)OC1n1ccc(=O)[nH]c1=O)OCC1c2ccccc2-c2ccccc21 (some centres undefined),1 min
3,O=C(C[C@@H](NC(=O)OCC1c2ccccc2-c2ccccc21)C(=O)NC1C(O)C(CO)OC1n1ccc(=O)[nH]c1=O)OCc1ccccc1 (some centres undefined),1 min
4,O=C(N[C@@H](C(=O)NC1C(O)C(CO)OC1n1ccc(=O)[nH]c1=O)c1ccccc1)OCC1c2ccccc2-c2ccccc21 (some centres undefined),2 min
5,N[C@@H]1[C@H](O)[C@@H](CO)O[C@H]1n1ccc(=O)[nH]c1=O,1.5 min

# Continued, values first:
row,half-life,SMILES
1,11.5 min,COc1ccc(C(OCC2OC(n3ccc(=O)[nH]c3=O)C(NC(=O)[C@@H](CCCCNC(=O)OCC3c4ccccc4-c4ccccc43)NC(=O)OCC3c4ccccc4-c4ccccc43)C2O)(c2ccccc2)c2ccc(OC)cc2)cc1 (some centres undefined)
2,8 min,COc1ccc(C(OCC2OC(n3ccc(=O)[nH]c3=O)C(NC(=O)[C@@H](CC(=O)OCc3ccccc3)NC(=O)OCC3c4ccccc4-c4ccccc43)C2O)(c2ccccc2)c2ccc(OC)cc2)cc1 (some centres undefined)
3,3 min,COc1ccc(C(OCC2OC(n3ccc(=O)[nH]c3=O)C(NC(=O)[C@H](NC(=O)OCC3c4ccccc4-c4ccccc43)c3ccccc3)C2O)(c2ccccc2)c2ccc(OC)cc2)cc1 (some centres undefined)
4,13 min,COc1ccc(C(OCC2OC(n3ccc(=O)[nH]c3=O)C(NC(=O)[C@@H](C)NC(=O)OCC3c4ccccc4-c4ccccc43)C2O)(c2ccccc2)c2ccc(OC)cc2)cc1 (some centres undefined)
